# Test results as given in patent US20240299400A1, “Transcription Factor GLI1 Inhibitors and Uses Thereof” (University of Connecticut, priority 2023, published 2024).
# Experiments:
# [1] = test system: GLI1 mRNA expression; assay: RT-qPCR GLI1 mRNA expression in Sufu-KO MEFs; format: cell-based, mouse
# Method: (§1) ASZ001 and Sufu-KO cells were seeded in 96-well plates (10,000/well, 100 μL) and incubated overnight under growth conditions. On the second day, ‘growth’ media was removed and replaced by ‘assay’ media (100 μL). On the third day, cells were treated with a serial dilution of drugs or DMSO for 48 h. mRNA expression was determined through Taqman Fast Cells-to-CT Kit (#4399003) per the manufacturer's instructions. In brief, cells were washed with chilled PBS, then mixed with lysis solution containing DNase I and incubated at RT for 5 min. Stop solution was then added to quench the lysis reagents. cDNA was then synthesized through a BioRad MyCycler following addition of reverse transcriptase. Finally, the cDNA was amplified through an ABI 7500 system following addition of Taqman Fast Universal PCR Master Mix and Taqman Gene Expression Primer. Relative gene expression levels were computed by the ΔΔCt method. Values represent mRNA expression relative to DMSO control (set at 1.0). Data were analyzed using GraphPad Prism, and IC50 values are the mean±SEM for at least two separate experiments performed in triplicate. Primers used are as follows: mouse ActB (Mm00607939_s1); mouse GLI1 (Mm00494645_ml); mouse Gli2 (Mm01293117_ml); mouse Ptch1 (Mm00436026_ml); mouse Hhip (Mm00469580_ml).
# [2] = test system: GLI1 mRNA expression; assay: RT-qPCR GLI1 mRNA expression in OHCs-stimulated C3H10T1/2 MEFs; format: cell-based, mouse; settings: for % Gli1 Expression: C3H10T1/2 MEFs, 10 μM, relative to Hh-agonist OHCs (set as 100%)
# Method: as §1
# C3H10T1/2 MEFs were seeded in 24-well plates (50,000/well, 500 μL). Following 24 h incubation, the ‘growth’ media was removed and replaced with ‘assay’ media (500 μL). On the third day, cells were treated with either DMSO, OHCs, or OHCs+drugs. Following a 24 h incubation, gene expression analysis was carried out following identical protocols as described above.
# [3] = test system: GLI1 mRNA expression; assay: RT-qPCR GLI1 mRNA expression in ASZ001 BCC cells; format: cell-based, mouse; settings: for reduction of GLI1 expression in ASZ001 (in words): concentrations up to 10 μM
# Method: as §1
# [4] = test system: ASZ001 cells; assay: MTS anti-proliferative assay in ASZ001 cells; format: cell-based, murine; settings: Mus musculus, ASZ001; Table 5, 48 h, Ave ± SEM
# Method: Cell viability was assessed by MTS proliferation assay kit (Promega) per manufacturer's protocol. Briefly, 2×10^4 cells were plated in a 96-well plate in 100 μL growth medium to make the cell population at ˜80% confluence. After 24 h, 1 μL drug solution was added to each well. DMSO was used as vehicle compound. After 48 h incubation (37° C., 5% CO2), 20 μL of freshly prepared 3-(4,5-dimethylthiazol-2-yl)-5-(3-carboxymethoxyphenyl)-2-(4-sulfophenyl)-2H-tetrazolium (MTS)/phenazine methosulfate (PMS) solution was added to each well, and the plate was returned to the incubator for 1 h. Absorbance at 490 nm was recorded, and the result was analyzed by GraphPad Prism 5. GI50 values represent mean±SEM for at least two separate experiments performed in triplicate.
# [5] = Table 2, mean ± SEM, read-out: GLI1 mRNA expression, IC50 Sufu-KO
# [6] = Table 2, mean ± SEM, read-out: GLI1 mRNA expression, IC50 C3H10T1/2
# [7] = Table 2, mean ± SEM, read-out: GLI1 mRNA expression, IC50 ASZ001
# [8] = Table 4, racemates and enantiomers, mean ± SEM, read-out: RT-qPCR, IC50 Sufu-KO
# [9] = Table 4, racemates and enantiomers, mean ± SEM, read-out: RT-qPCR, IC50 C3H10T1/2
# [10] = Table 4, racemates and enantiomers, mean ± SEM, read-out: RT-qPCR, IC50 ASZ001
# [11] = Mus musculus, Table 5, GLI1 mRNA, Ave ± SEM, read-out: RT-qPCR, IC50 Sufu-KO
# [12] = Mus musculus, ASZ001, Table 5, GLI1 mRNA, Ave ± SEM, read-out: RT-qPCR, IC50 ASZ001
SMILES,"IC50 [1, 5] [nM]","IC50 [2, 6] [nM]","IC50 [3, 7] [nM]","IC50 [1, 11] [nM]","IC50 [3, 12] [nM]",% Gli1 Expression ([2]; mean ± SEM) [%],GI50 [4] [nM],also measured
COc1cccc(C(Nc2cc(C)ccn2)c2ccc3cccnc3c2O)c1C (racemic) [Compound 2],990 ± 320,760 ± 230,5800 ± 1100,–,–,7.0 ± 1.4,–,–
Cc1ccnc(NC(c2cc(C)ccc2C)c2ccc3cccnc3c2O)c1 (racemic) [Compound 3],310 ± 210,1200 ± 400,2200 ± 900,–,–,10.0 ± 2.4,–,"IC50 [1, 8]: 310 ± 210 nM; IC50 [2, 9]: 1200 ± 400 nM; IC50 [3, 10]: 2200 ± 900 nM"
COc1ccc(C(Nc2cc(C)ccn2)c2ccc3cccnc3c2O)cc1O (racemic) [Compound 5],630 ± 200,1800 ± 500,7100 ± 1200,–,–,6.1 ± 0.6,–,–
CCOc1cc(C(Nc2cc(C)ccn2)c2ccc3cccnc3c2O)ccc1OC (racemic) [Compound 6],780 ± 160,3100 ± 1200,> 10000,–,–,7.6 ± 0.9,–,reduction of GLI1 expression in ASZ001 (in words) [3]: did not reduce GLI1 expression
Oc1c(C(Nc2ccccn2)c2ccc(Cl)c(Cl)c2)ccc2cccnc12 (racemic) [Compound 7],480 ± 220,570 ± 140,2800 ± 1500,–,–,4.2 ± 0.9,–,"IC50 [1, 8]: 480 ± 220 nM; IC50 [2, 9]: 570 ± 140 nM; IC50 [3, 10]: 2800 ± 1500 nM"
CSc1ccc(C(Nc2cc(C)ccn2)c2ccc3cccnc3c2O)cc1 (racemic) [Compound 8],1300 ± 200,980 ± 470,4500 ± 2600,–,–,4.1 ± 1.1,–,–
Cc1ccccc1C(Nc1ccccn1)c1ccc2cccnc2c1O (racemic) [Compound 9],1900 ± 600,620 ± 190,> 10000,–,–,10.6 ± 1.9,–,reduction of GLI1 expression in ASZ001 (in words) [3]: did not reduce GLI1 expression
Cc1ccnc(NC(c2cccc(Cl)c2Cl)c2ccc3cccnc3c2O)c1 (racemic) [Compound 10],1500 ± 400,210 ± 100,8400 ± 2000,–,–,18.2 ± 1.5,–,"IC50 [1, 8]: 1500 ± 400 nM; IC50 [2, 9]: 210 ± 100 nM; IC50 [3, 10]: 8400 ± 2000 nM"
Cc1ccc2ccc(C(Nc3ccccn3)c3ccc(Cl)c(Cl)c3)c(O)c2n1 (racemic) [Compound 11],3700 ± 1000,390 ± 270,> 10000,–,–,16.6 ± 0.7,–,reduction of GLI1 expression in ASZ001 (in words) [3]: did not reduce GLI1 expression
Oc1c(C(Nc2ccccn2)c2c(F)cccc2Cl)ccc2cccnc12 (racemic) [Compound 12],1000 ± 200,730 ± 70,3600 ± 1500,–,–,6.5 ± 0.8,–,"IC50 [1, 8]: 1000 ± 200 nM; IC50 [2, 9]: 730 ± 70 nM; IC50 [3, 10]: 3600 ± 1500 nM"
COc1ccc(C(Nc2ccccn2)c2ccc3cccnc3c2O)cc1[N+](=O)[O-] (racemic) [Compound 13],1700 ± 100,1000 ± 300,3600 ± 1100,–,–,5.9 ± 0.3,–,–
CCOc1cccc(C(Nc2cc(C)ccn2)c2ccc3cccnc3c2O)c1OC (racemic) [s2],–,–,–,–,–,63.7 ± 7.2,–,–
CCOc1cccc(C(Nc2cc(C)ccn2)c2ccc3cccnc3c2O)c1C (racemic) [s3],–,–,–,–,–,59.1 ± 11.9,–,–
CCOc1cccc(C(Nc2ccccn2)c2ccc3ccc(C)nc3c2O)c1 (racemic) [s6],–,–,–,–,–,56.1 ± 2.1,–,–
CCOc1ccc(C(Nc2ccccn2)c2ccc3ccc(C)nc3c2O)cc1OC (racemic) [s7],–,–,–,–,–,>100,–,–
CCc1ccc(C(Nc2cc(C)ccn2)c2ccc3cccnc3c2O)cc1 (racemic) [s10],–,–,–,–,–,79.4 ± 8.1,–,–
COc1ccc(C(Nc2ccccn2)c2ccc3ccc(C)nc3c2O)cc1C (racemic) [s11],–,–,–,–,–,62.1 ± 6.4,–,–
Cc1ccc2ccc(C(Nc3ccccn3)c3ccccc3Cl)c(O)c2n1 (racemic) [s12],–,–,–,–,–,23.6 ± 2.8,–,–
Cc1ccc2ccc(C(Nc3ccccn3)c3ccccc3F)c(O)c2n1 (racemic) [s14],–,–,–,–,–,78.9 ± 17.6,–,–
CCOc1ccc(C(Nc2ccccn2)c2ccc3ccc(C)nc3c2O)cc1 (racemic) [s16],–,–,–,–,–,86.8 ± 5.7,–,–
COc1ccc(C(Nc2ccccn2)c2ccc3ccc(C)nc3c2O)cc1 (racemic) [s18],–,–,–,–,–,>100,–,–
COc1ccc(I)cc1C(Nc1cc(C)ccn1)c1ccc2cccnc2c1O (racemic) [s19],–,–,–,–,–,>100,–,–
Cc1ccc(NC(c2cccc(C)n2)c2ccc3cccnc3c2O)nc1 (centres unmarked) [s25],–,–,–,–,–,>100,–,–

# Second part, led by results:
"IC50 [1, 5] [nM]","IC50 [2, 6] [nM]","IC50 [3, 7] [nM]","IC50 [1, 11] [nM]","IC50 [3, 12] [nM]",SMILES,% Gli1 Expression ([2]; mean ± SEM) [%],GI50 [4] [nM],also measured
–,–,–,980 ± 210,1600 ± 700,"CCN(CC)c1ccc(C(Nc2ccccn2)c2cc(C)c3ccc(C)nc3c2O)cc1 (centres unmarked) [Compound 16, 7-((4-Diethylaminophenyl)(pyridin-2-ylamino)methyl)-2,5-dimethylquinolin-8-ol]",–,15700 ± 2800,–
–,–,–,> 25000,9900 ± 1400,"CCN(CC)c1ccc(C(Nc2ccccn2)c2ccc3ccccc3c2O)cc1 (centres unmarked) [Compound 17, 2-((4-Diethylaminophenyl)(pyridin-2-ylamino)methyl)naphthalen-1-ol]",–,> 100000,–
–,–,–,> 25000,14600 ± 1400,"CCN(CC)c1ccc(C(Nc2ccccn2)c2c(O)ccc3cccnc23)cc1 (centres unmarked) [Compound 19, 8-((4-Diethylaminophenyl)(pyridin-2-ylamino)methyl)quinolin-7-ol]",–,> 100000,–
–,–,–,> 25000,840 ± 60,"CCN(CC)c1ccc(C(Nc2ccccn2)c2ccc3ccc(C)nc3c2OC(C)C)cc1 (centres unmarked) [Compound 21, N-((4-Diethylaminophenyl)(8-isopropoxy-2-methylquinolin-7-yl)methyl)pyridin-2-amine]",–,> 100000,–
–,–,–,> 25000,1900 ± 500,"C#CCCOc1c(C(Nc2ccccn2)c2ccc(N(CC)CC)cc2)ccc2ccc(C)nc12 (centres unmarked) [Compound 23, N-((4-Diethylaminophenyl)(8-(but-3-yn-1-yloxy)-2-methylquinolin-7-yl)methyl)pyridin-2-amine]",–,> 100000,–
–,–,–,> 25000,1700 ± 300,"CCN(CC)c1ccc(C(Nc2ccccn2)c2ccc3ccc(C)nc3c2OCc2ccccc2)cc1 (centres unmarked) [Compound 24, N-((4-Diethylaminophenyl)(8-benzyloxy-2-methylquinolin-7-yl)methyl)pyridin-2-amine]",–,> 100000,–
–,–,–,> 25000,1300 ± 400,"CCN(CC)c1ccc(C(Nc2ccccn2)c2ccc3ccc(C)nc3c2OCc2cccc(OC)c2)cc1 (centres unmarked) [Compound 25, N-((4-Diethylaminophenyl)(8-(3-methoxybenzyloxy)-2-methylquinolin-7-yl)methyl)pyridin-2-amine]",–,> 100000,–
–,–,–,> 25000,1200 ± 500,"CCN(CC)c1ccc(C(Nc2ccccn2)c2ccc3ccc(C)nc3c2OCc2ccc(OC)cc2)cc1 (centres unmarked) [Compound 26, N-((4-Diethylaminophenyl)(8-(4-methoxybenzyloxy)-2-methylquinolin-7-yl)methyl)pyridin-2-amine]",–,> 100000,–
–,–,–,> 25000,6900 ± 1100,"CCN(CC)c1ccc(C2c3ccc4ccc(C)nc4c3OC(=O)N2c2ccccn2)cc1 (centres unmarked) [Compound 27, 4-(4-Diethylaminophenyl)-9-methyl-3-(pyridin-2-yl)-3,4-dihydro-2H-[1,3]oxazino[5,6-h]quinolin-2-one]",–,> 100000,–
–,–,–,2100 ± 600,7200 ± 1100,"CCN(CC)c1ccc(C(C)(Nc2ccccn2)c2ccc3ccc(C)nc3c2O)cc1 (centres unmarked) [Compound 28, 7-(1-(4-(Diethylamino)phenyl)-1-(pyridin-2-ylamino)ethyl)-2-methylquinolin-8-ol]",–,25100 ± 4200,–
